# Source: paper PMC11570809, “Novel N-phenyl-2-(aniline) benzamide hydrochloride salt development for colon cancer therapy” (Frontiers in Pharmacology, 2024)
# Entries after “also recorded” stand apart in the source; their conditions may differ. Counter-ions that a name gives are not always drawn.
# Assays:
# RKO cells = assay: Plane colony assay, RKO; type: cell-based, human; conditions: RKO, 1, 2 and 4 µM
# Experimental: (§1) In 6-well plates, HT29 cells and RKO cells (1 × 10^3 cells/well) were inoculated and maintained overnight. Then treated with N53 and N53·HCl at different concentrations for 24 h and with normal culture-medium for 7 days respectively. After that, removed supernatant and fixed by 4% paraformaldehyde for 15 min. Then fixed cells were stained with 1% crystal violet dye for 15 min and rinsed with water. Finally, colonies were counted according to rules that nonoverlapping groups of at least 50 cells. The data are all derived from three parallel experiments (n = 3) and expressed as mean ± SD.
# PC-3 = assay: MTT anti-proliferation assay, PC-3; type: cell-based; conditions: Homo sapiens, PC-3, 72 h, read-out: IC50 ± SD PC-3
# [1] = Hygroscopicity and stability of the salt forms; type: physicochemical; conditions: solid salt
# HT29 cells = assay: Plane colony assay, HT29; type: cell-based, human; conditions: HT29, 1, 2 and 4 µM
# Experimental: as §1
# HT29 = assay: MTT anti-proliferation assay, HT29; type: cell-based, human; conditions: 72 h, read-out: IC50 ± SD HT29
# Experimental: The anti-proliferation activities of synthesized compounds to colon cancer cell lines were measured by the MTT (3-[4,5-dimethyl-2-thiazolyl]-2,5-diphenyl-2H-tet razolium bromide) assay. First, the cell suspension was prepared by trypsin and the corresponding medium, cells were diluted to 5 × 10^5 cells/mL, and 96-well plates were added 200 μL per well. The plates were maintained at 37°C in a humidified atmosphere containing 5% CO2 overnight. Then compounds at gradient concentrations were added to cells in the logarithmic phase to make the final concentration at 0.5, 1, 2, 4, 8, 16, and 32 μM. The cells were treated with tested compounds for 72 h, and the growth curve assay was tested in 24 h. When the time was up, 20 μL of MTT solution (5 mg/mL in PBS) was added into each well to incubate for 4 h at 37°C. Then the supernatant liquid was removed, 150 μL DMSO was added into every well to dissolve formazan crystals and read the absorbance at 570 nm by Spark microplate spectrophotometer (Tecan, Swiss). The IC50 values were analyzed by IBM SPASS Statistics 25.0 software. The data are all derived from three parallel experiments (n = 3) and expressed as mean ± SD.
# [2] = Acute toxicity study (OECD guidelines), single dose by gavage; type: in vivo
# Experimental: Acute toxicity studies were conducted for N53·HCl following OECD guidelines. Sixteen Kunming mice were purchased from SPF (Beijing) Biotechnology Co., Ltd. The mice were randomly divided into two groups (n = 8, 4 female and 4 male mice per group). The control group was treated with saline containing 10% DMSO, 10% Solutol HS -15, and the experimental group was treated with N53·HCl at a dose of 1,000 mg/kg (suspended in saline containing 10% DMSO and 10% Solutol HS -15).
# All treatments were administered with a single dose by gavage. […] It can be seen that N53·HCl is a safe agent with an oral LD50 of more than 1,000 mg/kg in mice.
smiles,measurement,setting,value
"Cc1c(Cl)cccc1Nc1ccccc1C(=O)Nc1ccc(N2CCN(C)CC2)cc1 [N53·HCl, 4-(4-(2-((3-chloro-2-methylphenyl)amino)ben-zamido)phenyl)-1-methylpiperazin-1-ium]",Number of cell clones formed,RKO cells,decreased significantly and dose-dependently
same,IC50,PC-3,13.7 ± 0.8 µM
same,Hygroscopicity,[1],low in hygroscopicity
same,Stability,[1],relatively stable under various conditions
same,Number of cell clones formed,HT29 cells,decreased significantly and dose-dependently
same,IC50,HT29,2.95 ± 0.08 µM
same,"Gross and histological (H&E) examination of major organs (heart, liver, kidney, spleen)","[2]; 1,000 mg/kg single dose by gavage, after 14 days",no obvious toxic effects; also recorded: no significant abnormalities
same,Symptoms and body weight compared to vehicle-treated control,"[2]; 1,000 mg/kg single dose by gavage, monitored 14 days",no significant changes in symptoms and body weight
same,LD50 at 14 days,"[2]; both sexes, Kunming, mouse, in vivo, po",> 1000 mg/kg
